From ChEMBL document CHEMBL1148790, “Synthesis, molecular modeling studies, and preliminary pharmacological characterization of all possible 2-(2'-sulfonocyclopropyl)glycine stereoisomers as conformationally constrained L-homocysteic acid analogs” (J Med Chem, 2007)

Legend:
[1] = Displacement of [3H]kainic acid from rat KA receptor in rat brain membranes
Glutamate NMDA receptor = experiment: Displacement of [3H]CGP-39653 from rat NMDA receptor in rat brain membranes
[2] = Displacement of [3H]AMPA from rat AMPA receptor in rat brain membranes
[3] = biological target: Metabotropic glutamate receptor 2 (Homo sapiens, UniProt Q14416); experiment: Displacement of [3H]LY341495 from mGluR2 receptor expressed in BHK cells; format: cell-based
[4] = biological target: Metabotropic glutamate receptor 1 (Homo sapiens, UniProt Q13255); experiment: Displacement of [3H]quisqualate from mGluR1 receptor expressed in BHK cells; format: cell-based
[5] = biological target: Metabotropic glutamate receptor 4 (Homo sapiens, UniProt Q14833); experiment: Displacement of [3H]LAP4 from mGluR4 receptor expressed in BHK cells; format: cell-based
[6] = biological target: Metabotropic glutamate receptor 5 (Homo sapiens, UniProt P41594); experiment: Binding affinity to mGluR5 receptor expressed in BHK cells; format: cell-based
Sequence of Metabotropic glutamate receptor 5 (P41594 whole entry): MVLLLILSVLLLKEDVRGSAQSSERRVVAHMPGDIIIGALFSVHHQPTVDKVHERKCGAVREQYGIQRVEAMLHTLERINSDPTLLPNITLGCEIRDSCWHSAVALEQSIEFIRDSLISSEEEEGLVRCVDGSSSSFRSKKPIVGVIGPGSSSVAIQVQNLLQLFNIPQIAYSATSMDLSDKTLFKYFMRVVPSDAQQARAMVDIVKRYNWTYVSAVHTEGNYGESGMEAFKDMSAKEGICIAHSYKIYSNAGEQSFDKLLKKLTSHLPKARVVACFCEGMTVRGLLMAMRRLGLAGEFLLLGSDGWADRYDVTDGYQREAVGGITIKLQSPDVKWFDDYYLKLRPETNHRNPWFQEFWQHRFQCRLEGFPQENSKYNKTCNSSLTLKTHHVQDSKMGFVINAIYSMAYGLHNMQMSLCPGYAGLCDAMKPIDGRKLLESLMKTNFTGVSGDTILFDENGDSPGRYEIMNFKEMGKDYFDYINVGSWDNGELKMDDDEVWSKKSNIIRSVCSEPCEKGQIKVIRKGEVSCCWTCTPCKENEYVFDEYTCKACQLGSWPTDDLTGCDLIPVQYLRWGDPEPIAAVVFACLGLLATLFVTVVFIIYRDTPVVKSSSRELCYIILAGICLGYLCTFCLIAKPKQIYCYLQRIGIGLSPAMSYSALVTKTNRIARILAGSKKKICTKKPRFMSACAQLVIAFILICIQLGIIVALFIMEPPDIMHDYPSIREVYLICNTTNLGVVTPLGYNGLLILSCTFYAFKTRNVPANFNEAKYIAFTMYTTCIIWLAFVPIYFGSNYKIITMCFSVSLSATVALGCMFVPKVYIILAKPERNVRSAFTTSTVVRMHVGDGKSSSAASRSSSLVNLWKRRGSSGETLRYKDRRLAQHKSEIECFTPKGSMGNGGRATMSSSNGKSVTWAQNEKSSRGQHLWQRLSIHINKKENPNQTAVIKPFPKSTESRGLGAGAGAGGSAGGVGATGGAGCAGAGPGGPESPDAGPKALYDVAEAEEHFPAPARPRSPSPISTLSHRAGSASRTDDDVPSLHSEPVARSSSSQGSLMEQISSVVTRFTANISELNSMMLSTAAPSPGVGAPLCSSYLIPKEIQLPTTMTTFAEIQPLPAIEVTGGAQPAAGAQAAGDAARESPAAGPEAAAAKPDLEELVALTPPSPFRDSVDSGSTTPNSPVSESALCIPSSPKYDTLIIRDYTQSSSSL

Sequence of Metabotropic glutamate receptor 2 (Q14416 whole entry): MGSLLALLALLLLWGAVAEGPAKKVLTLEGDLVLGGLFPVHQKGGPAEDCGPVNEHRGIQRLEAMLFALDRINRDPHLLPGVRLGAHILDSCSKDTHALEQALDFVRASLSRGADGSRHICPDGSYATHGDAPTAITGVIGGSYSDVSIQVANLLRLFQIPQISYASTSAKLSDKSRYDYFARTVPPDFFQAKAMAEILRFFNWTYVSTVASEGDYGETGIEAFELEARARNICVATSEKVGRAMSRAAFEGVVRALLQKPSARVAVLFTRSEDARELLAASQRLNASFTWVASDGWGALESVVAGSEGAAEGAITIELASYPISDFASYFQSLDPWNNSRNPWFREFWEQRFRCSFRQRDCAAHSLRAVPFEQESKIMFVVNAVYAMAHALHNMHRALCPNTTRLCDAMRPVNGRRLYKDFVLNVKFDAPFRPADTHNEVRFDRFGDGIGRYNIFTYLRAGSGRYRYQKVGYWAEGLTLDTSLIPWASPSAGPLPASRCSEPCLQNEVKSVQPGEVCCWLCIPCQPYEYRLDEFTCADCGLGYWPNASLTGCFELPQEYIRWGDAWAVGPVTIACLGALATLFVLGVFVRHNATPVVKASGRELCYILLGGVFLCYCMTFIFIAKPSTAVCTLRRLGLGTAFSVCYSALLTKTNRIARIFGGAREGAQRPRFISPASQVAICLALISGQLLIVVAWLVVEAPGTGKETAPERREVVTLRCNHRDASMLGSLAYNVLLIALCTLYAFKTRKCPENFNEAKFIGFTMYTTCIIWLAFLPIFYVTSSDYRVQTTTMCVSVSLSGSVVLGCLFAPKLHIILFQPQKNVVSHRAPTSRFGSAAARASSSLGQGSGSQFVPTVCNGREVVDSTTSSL
Sequence of Metabotropic glutamate receptor 1 (Q13255 whole entry): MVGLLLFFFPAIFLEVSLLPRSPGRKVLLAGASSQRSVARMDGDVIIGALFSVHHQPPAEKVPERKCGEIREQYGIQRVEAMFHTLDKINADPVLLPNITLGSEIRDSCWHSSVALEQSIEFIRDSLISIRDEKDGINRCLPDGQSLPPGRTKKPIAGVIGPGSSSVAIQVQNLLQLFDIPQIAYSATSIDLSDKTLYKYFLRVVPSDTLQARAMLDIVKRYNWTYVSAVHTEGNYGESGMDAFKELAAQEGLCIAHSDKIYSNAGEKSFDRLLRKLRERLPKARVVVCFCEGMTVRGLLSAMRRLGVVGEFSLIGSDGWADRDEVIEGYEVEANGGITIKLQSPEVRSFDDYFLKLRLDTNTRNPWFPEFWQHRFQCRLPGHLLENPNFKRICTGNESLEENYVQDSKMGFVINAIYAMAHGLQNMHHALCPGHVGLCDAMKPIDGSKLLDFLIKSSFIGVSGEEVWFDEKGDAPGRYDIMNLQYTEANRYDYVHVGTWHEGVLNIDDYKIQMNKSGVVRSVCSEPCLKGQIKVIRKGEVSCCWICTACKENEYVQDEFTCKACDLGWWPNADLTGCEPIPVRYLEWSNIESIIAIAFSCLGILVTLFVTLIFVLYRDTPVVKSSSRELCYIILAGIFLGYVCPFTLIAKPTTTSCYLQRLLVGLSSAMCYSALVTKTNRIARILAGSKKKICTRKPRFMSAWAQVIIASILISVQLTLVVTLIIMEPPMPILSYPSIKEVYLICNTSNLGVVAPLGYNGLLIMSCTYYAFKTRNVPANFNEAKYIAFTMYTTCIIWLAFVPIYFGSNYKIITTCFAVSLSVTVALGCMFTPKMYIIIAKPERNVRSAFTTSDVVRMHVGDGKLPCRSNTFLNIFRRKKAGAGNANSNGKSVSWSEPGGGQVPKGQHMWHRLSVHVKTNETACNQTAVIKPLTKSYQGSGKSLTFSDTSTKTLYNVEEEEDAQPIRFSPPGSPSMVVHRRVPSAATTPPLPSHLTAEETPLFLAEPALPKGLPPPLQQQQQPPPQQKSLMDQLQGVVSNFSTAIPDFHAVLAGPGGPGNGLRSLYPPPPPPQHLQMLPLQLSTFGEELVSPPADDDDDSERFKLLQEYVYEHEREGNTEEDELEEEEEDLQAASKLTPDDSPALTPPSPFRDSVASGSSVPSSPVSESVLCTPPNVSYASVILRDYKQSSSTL
Sequence of Metabotropic glutamate receptor 4 (Q14833 whole entry): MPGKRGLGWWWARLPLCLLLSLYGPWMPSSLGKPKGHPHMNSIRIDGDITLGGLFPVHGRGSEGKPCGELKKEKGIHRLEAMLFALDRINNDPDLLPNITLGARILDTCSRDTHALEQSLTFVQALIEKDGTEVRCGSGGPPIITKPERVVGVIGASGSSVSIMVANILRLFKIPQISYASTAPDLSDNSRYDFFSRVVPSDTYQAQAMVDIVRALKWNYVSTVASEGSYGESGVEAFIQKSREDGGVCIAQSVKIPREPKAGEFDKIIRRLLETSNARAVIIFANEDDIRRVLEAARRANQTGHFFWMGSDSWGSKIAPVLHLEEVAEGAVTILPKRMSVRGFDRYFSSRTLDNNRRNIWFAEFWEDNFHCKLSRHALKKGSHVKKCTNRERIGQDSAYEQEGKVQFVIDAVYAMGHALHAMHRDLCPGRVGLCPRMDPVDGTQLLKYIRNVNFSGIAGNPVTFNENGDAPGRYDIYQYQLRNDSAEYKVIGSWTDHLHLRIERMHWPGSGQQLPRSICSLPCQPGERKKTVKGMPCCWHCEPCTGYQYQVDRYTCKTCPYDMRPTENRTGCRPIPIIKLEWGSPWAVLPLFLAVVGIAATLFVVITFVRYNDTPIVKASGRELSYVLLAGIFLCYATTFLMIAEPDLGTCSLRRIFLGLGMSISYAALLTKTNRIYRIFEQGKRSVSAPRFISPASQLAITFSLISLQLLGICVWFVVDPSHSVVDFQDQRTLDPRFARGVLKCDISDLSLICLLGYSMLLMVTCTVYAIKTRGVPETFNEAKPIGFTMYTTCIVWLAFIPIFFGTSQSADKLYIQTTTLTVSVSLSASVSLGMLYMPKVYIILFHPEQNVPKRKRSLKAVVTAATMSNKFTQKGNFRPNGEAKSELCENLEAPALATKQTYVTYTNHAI

Row | Compound | Ki [1] [µM] | Ki (Glutamate NMDA receptor) [µM] | Ki [2] [µM] | Ki [3] [µM] | Ki [4] [µM] | Ki [5] [µM] | Ki [6] [µM]
1 | N[C@@H](C(=O)O)[C@@H]1C[C@H]1S(=O)(=O)O | 71 | 150 | 72 | > 300 | 254 | > 300 | 67
2 | N[C@@H](C(=O)O)[C@@H]1C[C@@H]1S(=O)(=O)O | 35 | > 300 | > 300 | > 300 | > 300 | > 300 | > 300
3 | N[C@@H](C(=O)O)[C@H]1C[C@H]1S(=O)(=O)O | 64 | 61 | 72 | > 300 | > 300 | > 300 | 55
4 | N[C@@H](CCS(=O)(=O)O)C(=O)O | 9.9 | 2.7 | 2.4 | > 300 | 87 | 53 | 54
5 | N[C@H](C(=O)O)[C@H]1C[C@@H]1S(=O)(=O)O | > 300 | > 300 | > 300 | 235 | 34 | > 300 | 49
6 | N[C@H](C(=O)O)[C@@H]1C[C@@H]1C(=O)O | – | 0.009 | – | – | – | – | –
7 | N[C@H](C(=O)O)[C@@H]1C[C@H]1S(=O)(=O)O | 34 | > 300 | > 300 | > 300 | 77 | > 300 | 81
8 | N[C@@H](C(=O)O)[C@H]1C[C@@H]1S(=O)(=O)O | 34 | 22 | 96 | > 300 | > 300 | > 300 | > 300
9 | N[C@H](C(=O)O)[C@H]1C[C@H]1S(=O)(=O)O | > 300 | > 300 | > 300 | > 300 | > 300 | > 300 | > 300
10 | N[C@H](C(=O)O)[C@@H]1C[C@@H]1S(=O)(=O)O | 3.3 | 19 | 0.1 | > 300 | > 300 | > 300 | > 300
